Experimental data reported in patent publication US8148347B2, “Inhibition of interaction of PSD93 and PSDS95 with nNOS and NMDA receptors” (The Johns Hopkins University, priority 2000, dated 2012).

System: Male Sprague-Dawley rats
Assay: radiant heat tail-flick test, baseline and NMDA-induced thermal hyperalgesia
Type: in vivo, rat
Conditions: for percentage change of TF latency (baseline tail-flick latency): without NMDA, compared to the control group
Excerpt: To examine whether PSD-95/SAP90 was required for thermal hyperalgesia triggered through NMDA receptor activation, we made an antisense oligonucletide (OND) corresponding to the PDZ domain nucleotides 241 to 258 (5′-[…]-3′; SEQ ID NO: 1) of rat PSD-95/SAP90 mRNA, as well as the sense OND and missense OND (5′-[…]-3′; SEQ ID NO: 2). All of the ONDs were compared to the Gene Bank database (GenBank accession number M96853) and found not to be complementary to any registered nucleotide sequences. The effects of antisense, sense and missense ONDs on baseline and NMDA-induced tail-flick latencies were assessed. […] To identify that NMDA-induced thermal hyperalgesia was produced specifically through NMDA receptor activation but not non-NMDA receptor activation, we observed the effects of a selective NMDA receptor antagonist, MK-801, and a selective non-NMDA receptor antagonist, DNQX, on NMDA-induced facilitation of the tail-flick reflex. […] In addition, motor weakness or dysfunction was not observed in locomotor tests (including placing reflex, grasping reflex and righting reflex) in any of the treated animals including the antisense groups (data not shown).
Animal preparation and behavioral testing. All experiments were carried out with the approval of the Animal Care Committee at the Johns Hopkins University and were consistent with the ethical guidelines of the National Institutes of Health and the International Association for the Study of Pain. Male Sprague-Dawley rats (250-300 g) were implanted with an intrathecal PE-10 catheter into the subarachnoid space at the rostral level of the spinal cord lumbar enlargement through an incision at the atlanto-occipital membrane according to the method as described.^25,27 One week or more later, the rats were injected intrathecally with saline or ONDs every 24 h for 4 days. On the fifth day, saline, NMDA, MK-801+NMDA or DNQX+NMDA was given intrathecally. Nociception was evaluated by the radiant heat tail-flick test. The doses and time point of maximal effect of NMDA used in the present study were determined based on a previous study.^24 The tail-flick apparatus (Model 33B Tail Flick Analgesy Meter, IITC Life Science, Woodland Hills, Calif., USA) generated a beam of radiant heat that was focused on the underside of the tail, 5 cm from the tip. A cut-off time latency of 13.5 s was used to avoid tissue damage to the tail. Nociception was assessed by the time required to induce tail-flick after applying radiant heat to the skin of the tail. The latency of reflexive removal of the tail from the heat was measured automatically to the nearest 0.01 s. Tail-flick latency was measured five times, and the basal latency was defined as the mean. Tail-flick data were expressed as percentage change calculated by the formula: (trial latency−baseline latency)/(baseline latency)×100%. Finally, PE-10 catheter position from each animal was confirmed when lumbar enlargement segments were removed for western blot analysis. PCR analysis of PSD-95/SAP90 in rat spinal cord. The cDNA sequences encoding portions of the PSD-95/SAP90 were amplified using the following synthetic OND primers: PSD1 (5′-[…]-3′; SEQ ID NO: 3) and PSD2 (5′-[…]-3′; SEQ ID NO: 4) for amplification of PSD-95/SAP90 codon positions 789-1525. RNA samples (1 μg) from rat spinal cord, brain and muscle were reverse transcribed to generate first-strand cDNA. The PCR reactions were performed for 25 cycles. Each cycle included 30 s at 94° C., 30 s at 55° C., and 30 s at 71° C. The PCR products were directly cloned into the TA cloning vector (Invitrogen Co., San Diego, Calif., USA) and verified by automatic DNA sequencing. Fusion protein construction and preparation. cDNA sequence encoding portion of PSD-95/SAP90 was amplified by PCR and subcloned in-frame into PGEX-2T (GIBCO, Rockville, Md., USA) via the BamHI and EcoRI restriction digest sites. […]

[1] = 50 μg/10 μl intrathecal every 24 h for 4 days + NMDA

## 5′-TGTGATCTCCTCATACTC-3′ (DNA, backbone and methylation of C not given here; listed as Rattus rattus) [antisense oligonucletide corresponding to the PDZ domain nucleotides 241 to 258 of rat PSD-95/SAP90 mRNA]
25 μg intrathecal
  prevention of the NMDA-induced decrease of the tail-flick latency: 55%
25 μg/10 μl and 50 μg/10 μl every 24 h for 4 days
  NMDA-produced facilitation of the tail-flick reflex after pretreatment: attenuated
25 μg/10 μl intrathecal every 24 h for 4 days + NMDA
  ΔTF latency (%): −11.65%
50 μg intrathecal
  prevention of the NMDA-induced decrease of the tail-flick latency: 82%
[1]
  ΔTF latency (%): −4.72%
  percentage change of TF latency (baseline tail-flick latency): 0.44±1.95%
Recovery for an additional four days after treatment
  tail flick latency in response to NMDA stimulation after recovery: returned to normal

## 5′-AAGCCCTTGTTCCCATTT-3′ (DNA, backbone and methylation of C not given here; listed as Rattus rattus) [MS, missense OND control, reference compound]
50 μg/10 μl every 24 h for 4 days
  NMDA-produced facilitation of the tail-flick reflex after pretreatment (attenuated or not): not
[1]
  ΔTF latency (%): −20.96%
  percentage change of TF latency (baseline tail-flick latency): −2.05±1.57%
